# Test results taken from ChEMBL document CHEMBL3352228 (J Med Chem, 2014).
# Test system: not listed separately
# Assay: in vitro
# Settings: pig, LLC-PK1
row,Structure (SMILES),Papp at 2 h
1,NC1=N[C@@]2(CO1)c1cc(-c3cccnc3F)ccc1Oc1ncc(-c3ccnc(F)c3)cc12,150 nm/s
2,COC(C)(C)C#Cc1cnc2c(c1)[C@]1(COC(N)=N1)c1cc(-c3cccnc3F)ccc1O2,120 nm/s
3,COC(C)(C)COc1cnc2c(c1)[C@]1(COC(N)=N1)c1cc(-c3cccnc3F)ccc1O2,160 nm/s
4,CC1(C)C=C(c2cnc3c(c2)[C@]2(COC(N)=N2)c2cc(-c4cccnc4F)ccc2O3)CCO1,170 nm/s
5,CC(C)(C)C#Cc1cnc2c(c1)[C@]1(COC(N)=N1)c1cc(-c3cccnc3F)ccc1O2,95 nm/s
6,CC(C)(C)COc1cnc2c(c1)[C@]1(COC(N)=N1)c1cc(-c3cccnc3)ccc1O2,110 nm/s
7,CC(C)(O)C#Cc1cnc2c(c1)[C@]1(COC(N)=N1)c1cc(-c3cccnc3F)ccc1O2,110 nm/s
8,NC1=N[C@@]2(CO1)c1cc(-c3cccnc3F)ccc1Oc1ncc(C3=CCCOC3)cc12,110 nm/s
9,NC1=N[C@@]2(CO1)c1cc(-c3cccnc3F)ccc1Oc1ncc(C3=CCOCC3)cc12,200 nm/s

# More lines, now with the values ahead:
row,Papp at 2 h,Structure (SMILES)
1,160 nm/s,CC(C)(C)COc1cnc2c(c1)[C@]1(COC(N)=N1)c1cc(-c3cncnc3)ccc1O2
2,140 nm/s,CC(C)(C)COc1cnc2c(c1)[C@]1(COC(N)=N1)c1cc(-c3cccnc3F)ccc1O2
3,160 nm/s,CC(C)(C)COc1ccc2c(c1)[C@]1(COC(N)=N1)c1cc(-c3cncnc3)cnc1O2
4,160 nm/s,N#Cc1ccc(-c2cnc3c(c2)[C@]2(COC(N)=N2)c2cc(-c4cccnc4F)ccc2O3)cc1
5,100 nm/s,NC1=N[C@@]2(CO1)c1cc(-c3cccnc3F)ccc1Oc1ncc(N3CCOCC3)cc12
6,140 nm/s,Cc1ccc(-c2cnc3c(c2)[C@]2(COC(N)=N2)c2cc(-c4cccnc4F)ccc2O3)cc1
7,150 nm/s,NC1=N[C@@]2(CO1)c1cc(-c3cccnc3F)ccc1Oc1ncc(C3CCOCC3)cc12

# Test system: not listed separately
# Assay: in vivo
# Settings: Sprague-Dawley, rat, plasma, po, 10 mg/kg
row,concentration at 4 h,Structure (SMILES)
1,1.01 µM,CC1(C)C=C(c2cnc3c(c2)[C@]2(COC(N)=N2)c2cc(-c4cccnc4F)ccc2O3)CCO1

# Test system: not listed separately
# Assay: in vivo
# Settings: Sprague-Dawley, rat, CSF, po, 10 mg/kg
row,concentration at 4 h,Structure (SMILES)
1,0.005 µM,CC1(C)C=C(c2cnc3c(c2)[C@]2(COC(N)=N2)c2cc(-c4cccnc4F)ccc2O3)CCO1

# Test system: Plasma
# Assay: not given
# Settings: rat, in vivo, po, 10 mg/kg, 4 h
row,Cp(f),Structure (SMILES)
1,0.045 µM,CC1(C)C=C(c2cnc3c(c2)[C@]2(COC(N)=N2)c2cc(-c4cccnc4F)ccc2O3)CCO1
